From US6942874B2, “Nucleotide compounds that block the bitter taste of oral compositions” (Linguagen Corp., priority 2001, dated 2005)

Tested on: transducin
Test: [35S] GTPγS binding assay: transducin activation by bitter-stimulated taste membranes
Format: biochemical, bovine
Source text: Since G proteins have an intrinsic GTPase activity, which terminates the activation cycle, a radioactive nonhydrolyzable analogue of GTR such as [^35S] GTPγS or [^3H] GppNHp must be used. To test for the inhibitory activity of nucleotide compounds, several modifications of the standard [^35S] GTPγS binding assay were made to efficiently measure activation by bitter responsive receptors that couple to gustducin or transducin ([…] et al., in preparation). To maximize the bitter dependent change in radiolabel uptake GDP:GTPγS ratios, buffer composition, and specific activity of the [^35S] GTPγS were adjusted. […] Radionucleotide bound to transducin can be measured by filter binding followed by washing to remove unbound label (Asano et al., 1984 Biochemistry 23:5460-5467). The final concentrations in the [^35S] GTPγS binding assay mix are 10 mM HEPES pH 7.5, 5 mM MgCl2, 50 mM NaCl, 1 mM dithiolthreitol, 10 μM GDP, 1 μM [^35S] GTPγS (0.1 μCi/sample), 0.5 μg/0.05 ml transducin heterotrimer. A 2× stock of the above mixture is added to the bitter compound. Reactions are started by addition of 5 μg/0.05 ml bovine circumvallate membranes and the sample volume is adjusted to […] with water. Samples are incubated at room temperature (25±2° C. for 2 hours). Long incubation times are necessary due to the low density of receptors in the membranes. Similar results are obtained with high dilutions of rhodopsin. Samples are then filtered through BA-85 nitrocellulose filters and washed 3 times with 3 ml of 50 mM Tris-HCl pH 7.5, 4 mM MgCl2, and 0.1 M NaCl. Filters are dried, placed in scintillation fluid and the radioactivity is determined by scintillation counting. Experiments are performed in triplicate with several concentrations of the tastant of interest. Controls include: (i) a rhodopsin positive control, (ii) a no tastant negative control and (iii) a no membrane control +/-tastants.

- [35S] GTPγS radiolabel binding to transducin (10 mM, with circumvallate membranes, vs membranes alone, Student's t-test, FIG. 1A): increased radiolabel binding
- activation of transducin relative to maximal rhodopsin stimulated [35S] GTPγS binding (denatonium 10 mM, with bovine circumvallate membranes, FIG. 1A): ~40%
SMILES: CC[N+](CC)(CC(=O)Nc1c(C)cccc1C)Cc1ccccc1 [denatonium]
- concentration dependence of transducin activation (in the presence of circumvallate membranes, FIG. 1B): concentration dependent activation of transducin
